{"source": "patent US20230382888A1", "about": "“HDAC INHIBITOR SOLID STATE FORMS” (Viracta Subsidiary, Inc., priority 2020, published 2023)", "assay_type_in_all_cases": "physicochemical", "key": {"[1]": {"test": "Static storage stability at elevated temperature/humidity (XRPD, HPLC)"}, "[2]": {"test": "Thermodynamic aqueous solubility", "conditions": "for pH of saturated solution: water, after 24 hours equilibration at 25° C.", "experimental": "Aqueous solubility was determined by suspending sufficient compound in 0.5 ml deionized water to give a maximum final concentration of 40 mg/ml of the parent free-form of the compound. The suspension was equilibrated at 25° C., on a Heidolph plate shaker set to 750 rpm for 24 hours. After equilibration, the appearance was noted and the pH of the saturated solution was measured. Samples forming suspensions were centrifuged for 4 min at 13,500 rpm. Samples were then filtered through a glass fiber C filter (particle retention 1.2 μm), before dilution with H2 O as appropriate. Quantitation was by HPLC (see Table 2 for parameters) with reference to a standard solution of approximately 0.15 mg/ml in DMSO. Different volumes of the standard, diluted and undiluted sample solutions were injected. The solubility was calculated using the peak areas determined by integration of the peak found at the same retention time as the principal peak in the standard injection. Analysis was performed on an Agilent HP1100/Infinity II 1260 series system equipped with a diode array detector and using OpenLAB software."}, "[3]": {"test": "Competitive slurries in different water activity (thermodynamic stability)", "experimental": "Competitive slurries of the anhydrous and hydrated forms in different water activity at 50° C. and 5° C. were used to determine the thermodynamic stability relationships."}, "[4]": {"test": "Gravimetric vapour sorption (GVS)", "experimental": "Sorption isotherms were obtained using a SMS DVS Intrinsic moisture sorption analyser, controlled by DVS Intrinsic Control software. The sample temperature was maintained at 25° C. by the instrument controls. The humidity was controlled by mixing streams of dry and wet nitrogen, with a total flow rate of 200 ml/min. The relative humidity was measured by a calibrated Rotronic probe (dynamic range of 1.0 — 100% RH), located near the sample. The weight change, (mass relaxation) of the sample as a function of % RH was constantly monitored by a microbalance (accuracy ±0.005 mg). Typically, 20-30 mg of sample was placed in a tared mesh stainless steel basket under ambient conditions. The sample was loaded and unloaded at 40% RH and 25° C. (typical room conditions). A moisture sorption isotherm was performed as outlined below (2 scans per complete cycle). The standard isotherm was performed at 25° C. at 10% RH intervals over a 0-90% RH range. Typically, a double cycle (4 scans) was carried out. Data analysis was carried out within Microsoft Excel using the DVS Analysis Suite. [table]"}, "[5]": {"test": "Intrinsic dissolution rate (IDR) in FaSSGF"}}, "note": "Entries after “also recorded” stand apart in the source; their conditions may differ."}
{"compound": "O=C(NO)c1cnc(N2C[C@@H]3[C@H](C2)[C@H]3NCc2ccc3cc(F)ccc3n2)nc1", "note": "[Mesylate Form 1, N-hydroxy 2-{6-[(6-fluoro-quinolin-2-ylmethyl)-amino]-3-aza-bicyclo[3.1.0]hex-3-yl}pyrimidine-5-carboxamide]", "values": [{"measurement": "HPLC purity after static storage", "setting": "[1]; 25° C./97% RH, 1 week", "result": "no significant drop in purity"}, {"measurement": "HPLC purity after static storage", "setting": "[1]; 25° C./97% RH, 14 weeks", "result": 93.5, "unit": "%"}, {"measurement": "Solid form by XRPD after static storage", "setting": "[1]; 25° C./97% RH, 14 weeks", "result": "Mesylate Form 1"}, {"measurement": "Solid form by XRPD after static storage", "setting": "[1]; 25° C./97% RH, 7 days (1 week)", "result": "unchanged; also recorded: No change, Mesylate Form 1"}, {"measurement": "HPLC purity after static storage", "setting": "[1]; 40° C./75% RH, 1 week", "result": "no significant drop in purity"}, {"measurement": "HPLC purity after static storage", "setting": "[1]; 40° C./75% RH, 14 weeks", "result": "Form 2 (94.7% purity)"}, {"measurement": "Solid form by XRPD after static storage", "setting": "[1]; 40° C./75% RH, 14 weeks", "result": "Mixture of Mesylate Form 1 and Mesylate"}, {"measurement": "Solid form by XRPD after static storage", "setting": "[1]; 40° C./75% RH, 7 days (1 week)", "result": "unchanged; also recorded: No change, Mesylate Form 1"}, {"measurement": "solubility at 24 h", "setting": "[2]; thermodynamic from solid, deionized water, 25° C., 24 hours, maximum final concentration 40 mg/ml of parent free-form", "result": 40, "unit": "mg/mL"}, {"measurement": "pH of saturated solution", "setting": "[2]", "result": "(pH = 3.2)"}, {"measurement": "pH of saturated solution", "setting": "[2]; listed as mesylate", "result": "~3.2"}, {"measurement": "Water activity (aw) up to which the form is the most stable", "setting": "[3]; competitive slurries at 50° C.", "result": 0.6}, {"measurement": "Water activity (aw) up to which the form is the most stable", "setting": "[3]; competitive slurries at ° C. (so in the source)", "result": "≥ 0.3"}, {"measurement": "Reversible water uptake by GVS", "setting": "[4]; 0-90% RH, 25° C.", "result": "0.35% reversible uptake from 0-90%"}, {"measurement": "Hygroscopicity by GVS", "setting": "[4]; 25° C.", "result": "Slightly hygroscopic"}, {"measurement": "XRPD post-GVS (solid form)", "setting": "[4]; residue after GVS", "result": "no change; also recorded: XRPD remains unchanged"}, {"measurement": "IDR relative to free base form A", "setting": "[5]; FaSSGF", "result": "~8", "unit": "times"}, {"measurement": "IDR in FaSSGF", "setting": "[5]; Fasted State Simulated Gastric Fluid", "result": 9.1, "unit": "mg/min/cm^2"}]}
